The source of these data is paper PMC5458052 (Nature Communications, 2017).

In general, IC50 refers to the concentration needed to halve the response being measured. One may read the CLint scaled as the capacity of the preparation to metabolise the compound, expressed as a volume cleared per time. What is called half-life is the time in which the quantity being followed falls by half. Higher therefore signals slow loss. As a reminder, the clearance is the rate of elimination divided by the concentration.

Data set [1] has as its system P. falciparum lab lines FC27 and K1. Briefly: microbe, parasite or virus in culture. The format is cell-based. Particulars: Plasmodium falciparum, median of 3 independent experiments.
The test system of data set [2] is P. falciparum strains (sensitive and resistant). Put plainly: microbe, parasite or virus in culture. The format is cell-based. Particulars: Plasmodium falciparum, mean ± SD n=3.
Data set [3] deals with P. falciparum strain 3D7^0087/N9. On the set-up: method as in PMID 19596869. The conditions noted are these: four consecutive daily doses; cited from earlier work.
The test system of data set [4] is P. vivax clinical field isolates. Put plainly: microbe, parasite or virus in culture. The format is cell-based. The conditions noted are these: Plasmodium vivax, read-out: Median IC50.
Data set [5] can be described thus: In vitro intrinsic clearance, rat liver microsomes (Chem Partners). The format is in vitro ADME. The conditions noted are these: rat (R) liver microsomes. (In general: Microsomes from liver hold many membrane-bound enzymes, among them those of drug oxidation.)
Data set [6] is described as follows: In vitro intrinsic clearance, human liver microsomes (Chem Partners). The format is in vitro ADME. Particulars: human (H) liver microsomes.
A short description of data set [7]: Rat blood stability in vitro. The conditions noted are these: male, Sprague Dawley, freshly collected whole blood.
The subject of data set [8] is P. berghei. The arrangement: species or system Plasmodium berghei.
In a further data set the test system is P. falciparum 3D7. Briefly: In vitro antimalarial activity, drug sensitivity testing (3D7). The conditions noted are these: Plasmodium falciparum. In kind it is cell-based.
Data set [9] in a line: Rat PK iv 1 mg/kg (Chem Partners). Particulars: in vivo.
A short description of data set [10]: Mammalian cell cytotoxicity. In kind it is cell-based. The conditions noted are these: human; HeLa cells, n=3; read-out: cytotoxicity median IC50.
Data set [11] concerns P. berghei. The arrangement: method as in Charman et al. 12. Particulars: ref Charman et al. 12, cited from earlier work.
Data set [12] relates to African variant G6PD deficient human red blood cells (huRBC). Particulars: 7 days post-treatment; E209 up to 50 mg kg^−1 day^−1 for 3 days; PQ 25 mg/kg/day for 3 days.

Like-named read-outs stand apart in the source and are kept apart here.

Turning to `C[C@H]1[C@H](OC(=O)CCC(=O)O)O[C@@H]2O[C@@]3(C)CC[C@H]4[C@H](C)CC[C@@H]1[C@@]24OO3` [Artesunate, artesunate], the IC50 in [1] (K1, FC27 (CQ S) lab line) came out at 3.6 nM; in [1] (K1, K1 (CQ R) lab line), 5.1 nM; in [2] (DD2, strain Dd2 (chloroquine resistant)), 5.4 ± 1.1 nM; in data set [2] (HB3, strain HB3 (chloroquine sensitive)), 2.8 ± 0.6 nM; in [2] (NF54, strain NF54 (chloroquine sensitive)), 4.7 ± 1 nM; in [2] (strain 7G8 (chloroquine resistant)), 1.8 ± 0.4 nM. Besides, the IC50 in data set [2] (strain D6 (chloroquine sensitive)) was 5.8 ± 1.2 nM; in data set [2] (strain FCB (chloroquine resistant)), 5.8 ± 1.2 nM; in data set [2] (strain K1 (chloroquine resistant)), 2.8 ± 0.6 nM; in data set [2] (strain V1/S (chloroquine resistant)) it was 2.7 ± 0.6 nM; in [4], 0.8 nM. For the same compound, in data set [3], the ED90 is 10 mg/kg.
In the case of `CS(=O)(=O)N1CCN(CCCOc2ccc(C3CCC4(CC3)OOC3(OO4)C4CC5CC(C4)CC3C5)cc2)CC1` (stereo not drawn) [Compound 7], the CLint scaled in [5] amounted to 29 mL/min/kg. The same compound showed a CLint scaled in data set [6] of 238 mL/min/kg. Also, in data set [7], the half-life at 1 µM is 900 min. For the same compound, the “In vivo (Pb) MSD (days) at 1 x 30 mg/kg” value in the data set on P. berghei [8] is on record as 14 (14, 14, 14) days. In the data set on P. falciparum 3D7, this compound had an IC50 of 3.7 ± 0.1 nM. Moreover, in data set [9], the clearance was found to be 3.5 mL/min/kg and the half-life was 192 min.
As to `C[C@H]1[C@@H](O)O[C@@H]2O[C@@]3(C)CC[C@H]4[C@H](C)CC[C@@H]1[C@@]24OO3` [DHA, dihydroartemisinin, reference compound], the IC50 in [10] turned out to be 400 nM.
On to `c1cc([C@H]2CC[C@]3(CC2)OO[C@]2(O3)C3CC4CC(C3)CC2C4)ccc1OCCN1CCOCC1` [OZ439], for which, in the data set with P. berghei [11] (animals cured of n=3, single oral dose 30 mg/kg), the cures was 3. For the same compound, the “In vivo (Pb) MSD (days) at 1 x 30 mg/kg” value in the data set with P. berghei [11] (single oral dose 30 mg kg^-1, P. berghei infected mice) was 30 days. The compound further registered an IC50 in the data set on P. falciparum 3D7 of 5.1 ± 0.81 nM.
With `COc1cc(NC(C)CCCN)c2ncccc2c1` (stereo not drawn) [primaquine, reference compound], in data set [12], the “loss of huRBC” value was “induced significant loss of huRBC”.
